Legend:
[1] = Plasma caffeine concentrations in conscious dogs; format: in vivo; details: dog, intravenous, 10 mg/kg
Protocol: (§1) Three experiments were performed on each dog in the group.
(§2) Each dog received an IV injection of 5 μg/kg of regadenoson. […] LVSP, LV dP/dtMax, MAP, HR and CBF were recorded continuously. Blood samples were taken from the left atrial catheter at 1, 3, 5, 15, 30, 45 and 60 min following injections of regadenoson.

conscious dogs [2] = assay: Effects of caffeine alone on MAP and HR in conscious dogs (Part I); format: in vivo, dog
Protocol: Sixteen chronically instrumented male mongrel dogs weighing from 22-30 kg were used in the study. The animal protocol was approved by the Institutional Animal Care and Use Committee of New York Medical College and conforms to the Guide for the Care and Use of Laboratory Animal by the United States National Institutes of Health.
Dogs were sedated with acepromazine (0.3 mg/kg, IM) and anesthetized with pentobarbital sodium (25 mg/kg, IV). After intubation, dogs were artificially ventilated with room air. A thoracotomy was made in the fifth intercostal space using sterile techniques. A Tygon catheter (Cardiovascular Instruments, Wakefield, Mass.) was inserted into the descending thoracic aorta and another one was inserted into the left atrium. In 9 dogs, an ultrasound flow transducer (Transonic Systems, Ithaca, N.Y.) was placed around the left circumflex coronary artery. A solid-state pressure gauge (P6.5, Konisberg Instruments, Pasadena, Calif.) was placed into the left ventricle through the apex. The chest was closed in layers. The catheters and wires were tunneled subcutaneously and externalized through the skin at the back of the dog's neck. Dogs were allowed to recover from the surgery before experiments were performed, and were trained to lie on a table.
Phasic arterial pressure was measured by connecting the aortic catheter to a strain gauge transducer (P23 ID, LDS Test and Measurement, Valley View, Ohio). Left ventricular pressures were measured by the solid pressure gauge. CBF (mL/min) was measured from an ultrasound flow transducer using a Transonic flowmeter (T206, Transonic Systems, Ithaca, N.Y.). Two indices were used to describe the regadenoson-induced coronary vasodilation: 1) the maximum increase in CBF and 2) the duration of the 2-fold increase in CBF (the period of time that CBF was elevated to a level ≧2-fold of baseline CBF). All pressure and flow data were acquired and analyzed using a Ponemah System (Version 3.30 or 4.20, LDS Test and Measurement, Valley View, Ohio). MAP and HR were calculated from phasic blood pressure, and LV dP/dtMax was calculated from the left ventricular systolic pressure.
On the day of an experiment, a dog was placed on a table, where it lay quietly during the experiment. A catheter was inserted into a peripheral vein in the leg and attached to an infusion line to administer drugs without disturbing the dog. The experiment was begun after MAP, HR and CBF were stable.
as §1
The statistical significance of a difference between the value of a parameter at baseline and at the indicated time point after drug administration was determined using a One-Way Repeated Measures ANOVA followed by Tukey's Test. […] Results with p<0.05 were considered to be significant. A computer-based software package (SigmaStat 2.03) was used for statistical analysis. All data are presented as Mean±SEM.

normal subjects = assay: Safety and tolerability of regadenoson with and without prior caffeine; format: in vivo, human
Protocol: 15O water was used as the radionuclide in the PET scans. There was a 1- to 14-day washout period between dosing days. Blood samples and measures of safety were collected until 120 minutes after study drug administration.
Safety measures included adverse events (AEs), serious adverse events, vital signs (HR and BP), ECG, concomitant medications, and a tolerability questionnaire. All available data from subjects who received the single dose of regadenoson were to be included in the statistical summaries.
ECG intervals and changes from baseline values in ECG intervals were to be presented, as were occurrences of rhythm or conduction abnormalities. Concomitant medication usage was to be summarized.
Tolerability questionnaire responses were to be analyzed using the Wilcoxen rank sum test (“How did you feel?” question) and the exact Cochran-Mantel-Haenszel test (Day 2-only question “How did this test compare to the first test?”).

[3] = Plasma regadenoson concentrations in conscious dogs; format: in vivo, dog
Protocol: as §2

conscious dogs [4] = assay: Effects of regadenoson on HR and CBF before and after metoprolol in conscious dogs; format: in vivo, dog; details: for duration of two-fold increase in CBF: in the presence of metoprolol 1.5 mg/kg
Protocol: Five mongrel dogs were chronically instrumented for measurements of systemic hemodynamics and coronary blood flow (CBF). The effects of regadenoson (1, 2.5 and 5 μg/kg, IV) on HR and CBF were assessed before and after administration of the β1-adrenergic receptor blocker metoprolol (1.5 mg/kg). Values of peak CBF and the duration of the two-fold increase in CBF above baseline were used to assess Reg-induced coronary vasodilation.

[5] = caffeine 200 mg po vs placebo, regadenoson 400 μg IV, p<0.001
[6] = caffeine 200 mg po, regadenoson 400 μg IV
[7] = Reg 1 μg/kg IV, before metoprolol
[8] = Reg 2.5 μg/kg IV, before metoprolol
[9] = Reg 5 μg/kg IV, before metoprolol
[10] = regadenoson 400 μg IV, 25/43 subjects

Cn1c(=O)c2c(ncn2C)n(C)c1=O [Caffeine, caffeine]
concentration at 45 min [1]: 52 ± 2 µM
changes in MAP and HR (conscious dogs [2]; caffeine 2 mg/kg IV): no significant changes
HR (conscious dogs [2]; caffeine 2 mg/kg IV, 2.5 min): 95 ± 5 beats/min
HR (conscious dogs [2]; caffeine 2 mg/kg IV, 5 min): 91 ± 5 beats/min
HR (conscious dogs [2]; caffeine 2 mg/kg IV, 15 min): 85 ± 6 beats/min
HR (conscious dogs [2]; caffeine 2 mg/kg IV, 30 min): 81 ± 7 beats/min
HR (conscious dogs [2]; caffeine 2 mg/kg IV, 60 min): 90 ± 9 beats/min
HR (conscious dogs [2]; caffeine 2 mg/kg IV, 90 min): 87 ± 5 beats/min
HR (conscious dogs [2]; caffeine 2 mg/kg IV, 120 min): 88 ± 6 beats/min
change in HR (conscious dogs [2]; caffeine 4 mg/kg IV): without a significant change
HR (conscious dogs [2]; caffeine 4 mg/kg IV, 2.5 min): 104 ± 5 beats/min
HR (conscious dogs [2]; caffeine 4 mg/kg IV, 5 min): 102 ± 4 beats/min
HR (conscious dogs [2]; caffeine 4 mg/kg IV, 15 min): 88 ± 6 beats/min
MAP (conscious dogs [2]; caffeine 4 mg/kg IV, 15 min): 99 ± 4 mm Hg
HR (conscious dogs [2]; caffeine 4 mg/kg IV, 30 min): 90 ± 7 beats/min
HR (conscious dogs [2]; caffeine 4 mg/kg IV, 60 min): 85 ± 7 beats/min
HR (conscious dogs [2]; caffeine 4 mg/kg IV, 90 min): 90 ± 7 beats/min
HR (conscious dogs [2]; caffeine 4 mg/kg IV, 120 min): 86 ± 5 beats/min
increase in MAP (conscious dogs [2]; caffeine 4 mg/kg IV, at both 2.5 and 5 min after injection): ~12 mm Hg
HR (conscious dogs [2]; caffeine 10 mg/kg IV, 2.5 min): 100 ± 4 beats/min
HR (conscious dogs [2]; caffeine 10 mg/kg IV, 5 min): 101 ± 4 beats/min
HR (conscious dogs [2]; caffeine 10 mg/kg IV, 15 min): 93 ± 5 beats/min
HR (conscious dogs [2]; caffeine 10 mg/kg IV, 30 min): 87 ± 5 beats/min
MAP (conscious dogs [2]; caffeine 10 mg/kg IV, 30 min): 101 ± 3 mm Hg
HR (conscious dogs [2]; caffeine 10 mg/kg IV, 60 min): 83 ± 2 beats/min
HR (conscious dogs [2]; caffeine 10 mg/kg IV, 90 min): 80 ± 5 beats/min
HR (conscious dogs [2]; caffeine 10 mg/kg IV, 120 min): 80 ± 4 beats/min
MAP (conscious dogs [2]; caffeine 10 mg/kg IV, 120 min): 102 ± 2 mm Hg
tolerability questionnaire: comfort during the test with caffeine (normal subjects; [5]): felt more comfortable
tolerability questionnaire: feeling after the caffeine test vs the placebo test (normal subjects; [5]): felt better
effect of caffeine on severity of AEs (normal subjects; [6]): attenuated
effect of caffeine on systolic or diastolic blood pressures in the presence of regadenoson (normal subjects; [6]): no effect
overall incidence of AEs, placebo vs caffeine groups (normal subjects; [6]): no difference
effect of caffeine on HR increase caused by regadenoson (normal subjects; caffeine 200 mg po, regadenoson 400 μg IV, p<0.001): attenuated
regadenoson-induced headache severity with caffeine (normal subjects; caffeine 200 mg po, regadenoson 400 μg IV, p=0.012): decreased

CNC(=O)c1cnn(-c2nc(N)c3ncn([C@@H]4O[C@H](CO)[C@@H](O)[C@H]4O)c3n2)c1 [Regadenoson, (1-{9-[(4S,2R,3R,5R)-3,4-dihydroxy-5-(hydroxymethyl)oxolan-2-yl]-6-aminopurin-2-yl}pyrazol-4-yl)-N-methylcarboxamide]
pharmacokinetic profiles of regadenoson in presence of caffeine ([3]; caffeine at 1, 2, 4 or 10 mg/kg): not changed
time of peak plasma regadenoson concentration ([3]; regadenoson 5 μg/kg IV, absence of caffeine): ~1 min
increase in HR (ΔHR) (conscious dogs [4]; Reg 1 μg/kg IV, after metoprolol 1.5 mg/kg IV): 19±4 bpm
duration of 2-fold increase in CBF (conscious dogs [4]; [7]): 93 ± 22 s
increase in HR (ΔHR) (conscious dogs [4]; [7]): 49±8 bpm
increase in peak CBF (ΔCBF) (conscious dogs [4]; [7]): 129 ± 10 mL/min
duration of two-fold increase in CBF (conscious dogs [4]; Reg 1 μg/kg IV): 71 ± 34 s
increase in peak CBF (ΔCBF) (conscious dogs [4]; Reg 1 μg/kg IV, in the presence of metoprolol 1.5 mg/kg (NS)): 112 ± 5 mL/min
increase in HR (ΔHR) (conscious dogs [4]; Reg 2.5 μg/kg IV, after metoprolol 1.5 mg/kg IV): 28±3 bpm
duration of 2-fold increase in CBF (conscious dogs [4]; [8]): 316 ± 57 s
increase in HR (ΔHR) (conscious dogs [4]; [8]): 63±5 bpm
increase in peak CBF (ΔCBF) (conscious dogs [4]; [8]): 149 ± 7 mL/min
duration of two-fold increase in CBF (conscious dogs [4]; Reg 2.5 μg/kg IV): 215 ± 45 s
increase in peak CBF (ΔCBF) (conscious dogs [4]; Reg 2.5 μg/kg IV, in the presence of metoprolol 1.5 mg/kg (NS)): 136 ± 16 mL/min
increase in HR (ΔHR) (conscious dogs [4]; Reg 5 μg/kg IV, after metoprolol 1.5 mg/kg IV): 39±5 bpm
duration of 2-fold increase in CBF (conscious dogs [4]; [9]): 593 ± 86 s
increase in HR (ΔHR) (conscious dogs [4]; [9]): 71±7 bpm
increase in peak CBF (ΔCBF) (conscious dogs [4]; [9]): 174 ± 10 mL/min
duration of two-fold increase in CBF (conscious dogs [4]; Reg 5 μg/kg IV): 364 ± 86 s
increase in peak CBF (ΔCBF) (conscious dogs [4]; Reg 5 μg/kg IV, in the presence of metoprolol 1.5 mg/kg (p<0.05)): 138 ± 9 mL/min
AE sensation of heaviness, percentage of subjects (normal subjects; regadenoson 400 μg IV): 28%
QTc prolongation (>500 msec and change of >60 msec) by ECG analysis after regadenoson dosing (normal subjects; regadenoson 400 μg IV): one subject
first degree AV block by ECG analysis after regadenoson dosing (normal subjects; regadenoson 400 μg IV): one subject
deaths or SAEs (normal subjects; regadenoson 400 μg IV with and without caffeine): no reported deaths or SAEs
patients with at least one AE considered possibly related to regadenoson treatment (normal subjects; regadenoson 400 μg IV, 1/43): 2%
AEs: ear and labyrinth disorders, percentage of subjects (normal subjects; regadenoson 400 μg IV, 1/43 subjects): 2%
AEs: gastrointestinal disorders, percentage of subjects (normal subjects; regadenoson 400 μg IV, 2/43 subjects): 5%
subjects with at least one AE with a maximum severity of severe (normal subjects; regadenoson 400 μg IV, 4/43): 9%
AE paraesthesia, percentage of subjects (normal subjects; regadenoson 400 μg IV, 8/43): 19%
AEs: general disorders and administration site conditions, percentage of subjects (normal subjects; regadenoson 400 μg IV, 11/43 subjects): 26%
AE headache, percentage of subjects (normal subjects; regadenoson 400 μg IV, 12/43): 28%
AEs: musculoskeletal and connective tissue disorders, percentage of subjects (normal subjects; regadenoson 400 μg IV, 12/43 subjects): 28%
AE flushing, percentage of subjects (normal subjects; regadenoson 400 μg IV, 13/43): 30%
AEs: vascular disorders, percentage of subjects (normal subjects; regadenoson 400 μg IV, 13/43 subjects): 30%
AEs: nervous system disorders, percentage of subjects (normal subjects; regadenoson 400 μg IV, 18/43 subjects): 42%
AE palpitations, percentage of subjects (normal subjects; regadenoson 400 μg IV, 21/43): 49%
subjects with at least one AE with a maximum severity of moderate (normal subjects; regadenoson 400 μg IV, 21/43): 49%
AE dyspnoea, percentage of subjects (normal subjects; regadenoson 400 μg IV, 24/43): 56%
AEs: cardiac disorders, percentage of subjects (normal subjects; [10]): 58%
AEs: respiratory, thoracic and mediastinal disorders, percentage of subjects (normal subjects; [10]): 58%
subjects with at least one AE with a maximum severity of mild (normal subjects; regadenoson 400 μg IV, forty percent): 17/43
subjects with at least one AE considered probably related to regadenoson treatment (normal subjects; regadenoson 400 μg IV, ninety-five percent): 41/43
